From ChEMBL document CHEMBL2384934, “Discovery of 3-phenyl-1H-5-pyrazolylamine derivatives containing a urea pharmacophore as potent and efficacious inhibitors of FMS-like tyrosine kinase-3 (FLT3)” (Bioorg Med Chem, 2013) come the findings set out here.

As usually defined, the bioavailability is the share of a dose that reaches the circulation, judged against a reference dose that is usually intravenous. High values mean much systemic uptake, low ones little systemic uptake. What is called half-life is the time needed for the level to fall by half in the phase considered. Low readings indicate rapid decline, high ones slow decline. The clearance is the volume of plasma or blood freed of the substance per unit of time. Broadly, the AUC(0-inf) is total exposure, with the tail of the curve extrapolated. Higher therefore signals more exposure. In general, IC50 refers to the concentration that gives 50% inhibition. As usually defined, the GI50 is the concentration at which growth is held to half of that of the control.

Series [1] can be described thus: Oral bioavailability in Sprague-Dawley rat at 10 mg/kg. In kind it is ADME, organism-based. The note with it: in vivo.
The nature of series [2]: Half life in Sprague-Dawley rat at 2 mg/kg, iv. Format: ADME, organism-based. Further details: dose 2 mg/kg, route intravenous. To be noted: in vivo.
Series [3] can be described thus: Volume of distribution at steady state in Sprague-Dawley rat at 2 mg/kg, iv. To be noted: in vivo, read-out: Vdss. Format: ADME, organism-based. Further details: dose 2 mg/kg, route intravenous.
Series [4] can be described thus: Plasma clearance in Sprague-Dawley rat at 2 mg/kg, iv. Format: ADME, organism-based. Details: dose 2 mg/kg, route intravenous.
The nature of series [5]: AUC (0 to infinity) in Sprague-Dawley rat at 2 mg/kg, iv. In kind it is ADME, organism-based. Details: time infinity, dose 2 mg/kg, route intravenous. To be noted: plasma.
Series [6] deals with Vascular endothelial growth factor receptor 2 (Homo sapiens, UniProt P35968). The experiment in a line: biochemical. Format: cell-based, Sf9.
Chain of Vascular endothelial growth factor receptor 2 (P35968 whole entry): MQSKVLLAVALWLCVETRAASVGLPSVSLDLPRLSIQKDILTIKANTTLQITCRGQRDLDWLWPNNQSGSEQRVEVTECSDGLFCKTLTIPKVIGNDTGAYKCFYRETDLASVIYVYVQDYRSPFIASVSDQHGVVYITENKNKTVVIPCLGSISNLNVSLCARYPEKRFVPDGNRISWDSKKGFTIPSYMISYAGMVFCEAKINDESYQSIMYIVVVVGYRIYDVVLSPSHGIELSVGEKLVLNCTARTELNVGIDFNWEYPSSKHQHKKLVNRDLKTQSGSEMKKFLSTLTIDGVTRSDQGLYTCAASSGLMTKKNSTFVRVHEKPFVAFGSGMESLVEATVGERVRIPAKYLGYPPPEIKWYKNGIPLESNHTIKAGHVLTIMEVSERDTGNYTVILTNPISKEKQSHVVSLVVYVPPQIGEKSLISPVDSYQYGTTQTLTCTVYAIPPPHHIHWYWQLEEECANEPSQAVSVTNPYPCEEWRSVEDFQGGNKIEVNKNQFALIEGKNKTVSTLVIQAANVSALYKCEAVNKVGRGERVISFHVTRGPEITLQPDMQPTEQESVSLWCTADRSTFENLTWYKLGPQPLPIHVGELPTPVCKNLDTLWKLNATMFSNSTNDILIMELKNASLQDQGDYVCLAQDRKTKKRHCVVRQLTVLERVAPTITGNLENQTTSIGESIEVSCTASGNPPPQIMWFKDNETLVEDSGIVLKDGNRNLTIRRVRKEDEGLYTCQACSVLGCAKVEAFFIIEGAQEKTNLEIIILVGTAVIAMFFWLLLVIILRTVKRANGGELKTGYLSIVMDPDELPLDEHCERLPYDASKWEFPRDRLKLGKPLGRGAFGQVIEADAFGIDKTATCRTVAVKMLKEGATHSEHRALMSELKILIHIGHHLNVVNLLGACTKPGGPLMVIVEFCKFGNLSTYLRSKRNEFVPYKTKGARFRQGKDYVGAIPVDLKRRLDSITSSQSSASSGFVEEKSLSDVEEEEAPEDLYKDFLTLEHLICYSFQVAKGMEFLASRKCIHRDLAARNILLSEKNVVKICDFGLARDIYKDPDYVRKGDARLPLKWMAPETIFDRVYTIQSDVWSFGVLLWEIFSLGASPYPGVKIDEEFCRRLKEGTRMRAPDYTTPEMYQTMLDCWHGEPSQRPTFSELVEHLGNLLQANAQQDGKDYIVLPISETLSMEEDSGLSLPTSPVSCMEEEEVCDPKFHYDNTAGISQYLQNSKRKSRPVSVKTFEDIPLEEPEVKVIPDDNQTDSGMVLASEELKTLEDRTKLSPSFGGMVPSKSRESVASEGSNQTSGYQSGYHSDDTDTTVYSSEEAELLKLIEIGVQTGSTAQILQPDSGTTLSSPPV
Description: Inhibition of recombinant GST tagged VEGFR2 (789 to 1356) (unknown origin) transfected in insect sf9 cells after 120 mins by wallac counting analysis
Series [7] deals with T1, Receptor-type tyrosine-protein kinase FLT3 (Homo sapiens, UniProt P36888).
T1 sequence (P36888 whole entry): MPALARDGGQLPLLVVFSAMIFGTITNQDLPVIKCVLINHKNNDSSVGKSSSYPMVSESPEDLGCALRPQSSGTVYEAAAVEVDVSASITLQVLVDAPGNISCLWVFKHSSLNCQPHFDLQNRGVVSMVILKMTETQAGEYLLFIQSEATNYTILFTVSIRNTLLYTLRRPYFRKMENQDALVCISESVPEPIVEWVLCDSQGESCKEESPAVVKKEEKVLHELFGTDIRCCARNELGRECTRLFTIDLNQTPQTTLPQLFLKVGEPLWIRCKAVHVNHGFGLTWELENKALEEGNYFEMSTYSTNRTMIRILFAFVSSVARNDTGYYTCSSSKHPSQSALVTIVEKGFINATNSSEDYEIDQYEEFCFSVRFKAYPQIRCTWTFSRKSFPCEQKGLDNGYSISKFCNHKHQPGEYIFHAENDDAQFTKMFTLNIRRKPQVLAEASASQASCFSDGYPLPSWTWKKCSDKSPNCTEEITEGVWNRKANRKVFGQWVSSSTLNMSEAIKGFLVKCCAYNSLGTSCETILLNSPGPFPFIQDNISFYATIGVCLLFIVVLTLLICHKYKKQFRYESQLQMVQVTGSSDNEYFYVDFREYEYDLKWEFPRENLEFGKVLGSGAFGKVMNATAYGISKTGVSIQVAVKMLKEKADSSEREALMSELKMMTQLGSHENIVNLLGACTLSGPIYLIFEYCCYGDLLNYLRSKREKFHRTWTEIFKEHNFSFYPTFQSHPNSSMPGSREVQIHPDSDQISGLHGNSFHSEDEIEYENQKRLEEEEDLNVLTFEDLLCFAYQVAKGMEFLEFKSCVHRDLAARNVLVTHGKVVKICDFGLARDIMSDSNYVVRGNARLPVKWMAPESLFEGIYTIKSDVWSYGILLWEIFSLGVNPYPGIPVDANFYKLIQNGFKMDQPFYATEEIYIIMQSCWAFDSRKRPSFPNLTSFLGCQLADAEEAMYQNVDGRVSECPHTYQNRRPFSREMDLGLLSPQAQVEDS
The series is described as follows: biochemical. In kind it is cell-based, Sf9.
Description: Inhibition of wild type GST tagged FLT3 kinase (567 to 993) (unknown origin) transfected in insect sf9 cells after 4 hrs by wallac counting analysis

The next series deals with MOLM-13. The experiment in a line: cells. The note with it: Homo sapiens, MOLM-13, 72 h.
The target in a further series is T2, Aurora kinase A (Homo sapiens, UniProt O14965).
T2 sequence (O14965 whole entry): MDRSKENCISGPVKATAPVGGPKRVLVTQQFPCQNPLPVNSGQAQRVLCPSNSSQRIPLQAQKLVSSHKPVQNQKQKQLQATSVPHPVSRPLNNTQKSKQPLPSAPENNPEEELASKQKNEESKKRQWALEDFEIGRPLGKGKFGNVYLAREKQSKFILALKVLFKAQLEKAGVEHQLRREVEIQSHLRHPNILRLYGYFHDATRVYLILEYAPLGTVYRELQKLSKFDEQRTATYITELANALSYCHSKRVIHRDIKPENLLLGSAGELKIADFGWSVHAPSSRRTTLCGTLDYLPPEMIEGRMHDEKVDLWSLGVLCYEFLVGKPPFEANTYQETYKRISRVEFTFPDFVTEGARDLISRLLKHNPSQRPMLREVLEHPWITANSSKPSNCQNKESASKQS
The experiment in a line: biochemical.

Description for Aurora kinase A: Inhibition of recombinant GST tagged Aurora A kinase (123 to 401) (unknown origin) transfected in insect sf9 cells after 90 mins by wallac counting analysis

As to `Cc1cc(-c2cc(NC(=O)c3ccc(OCCN4CCOCC4)cc3)[nH]n2)ccc1NC(=O)Nc1cc(C(C)(C)C)on1`, the bioavailability in series [1] came to 4%. Moreover, in series [2], the half-life is 5.3 h. In addition, in [3], the Vd was 4.7 L/kg. For the same molecule, the clearance in [4] was found to be 13.9 mL/min/kg. Further, in series [5], the AUC(0-inf) was determined as 2860 ng·h/mL. Besides, the IC50 worked out at 27 nM in series [6], 20 nM in series [7] and 69 nM at Aurora kinase A. The same molecule returned a GI50 with MOLM-13 of 8 nM.
